These results are taken from publication PMC3163380, “Design, Synthesis and Biological Evaluation of Novel Pyrimido[4,5-d]pyrimidine CDK2 Inhibitors as Anti-Tumor Agents” (Scientia Pharmaceutica, 2011).

The target of data set [1] is T1, CDK2/CyclinA (Homo sapiens, UniProt P24941).
T1 construct: hexa-histidine (N); made in house; host or cells: sf21 insect cells (baculovirus)
Nature of the data set: CDK2/cyclinA enzymatic activity inhibition assay (32P-ATP, histone H1). The data set is classed as biochemical. Conditions: mean of at least two independent experiments.

For data set [2], the target named is CDK4/CyclinD (Homo sapiens, UniProt P11802). Kind of data set: CDK4/CyclinD inhibition assay. The data set is classed as biochemical. Conditions: mean of at least two independent experiments.
Data set [3] deals with T2, human EGFR tyrosine kinase domain (Homo sapiens, UniProt P00533).
T2 construct: C-terminal human EGFR tyrosine kinase domain
Nature of the data set: EGFR tyrosine kinase inhibition assay. The data set is classed as biochemical. Conditions: mean of at least two independent experiments.

In data set [4] the test system is EKVX. Nature of the data set: NCI primary anti-cancer assay (SRB), EKVX. It counts as cell-based. Conditions: Homo sapiens; 10^−5M; Non-Small Cell Lung Cancer EKVX; read-out: Growth Inhibition %. How it is done: (§1) Evaluation of anti-cancer activities on pyrimido[4,5-d]pyrimidine derivatives were performed at the National Cancer Institute (NCI) USA. First the newly synthesized compounds have been evaluated in primary anti-cancer assay at 10^−5M concentration against 60 human tumor cell lines then the active compounds were tested at 5 different concentrations against the same 60 human tumor cell lines. The biological data for the newly synthesized compounds are compiled in table 2
(§2) The cytotoxic activity was measured in vitro for the newly synthesized compounds using the SulfoRhodamine-B stain (SRB) assay using the method of Skehan. Cells were plated in 96-multiwell microtiter plate (10^4 cells/well) for 24 h before treatment with the compound(s) to allow attachment of cell to the wall of the plate. Tested compounds were dissolved in DMSO and diluted with saline to the appropriate volume. Triplicate wells were prepared for each individual dose. Monolayer cells were incubated with the compound(s) for 48 h at 37 °C and in atmosphere of 5% CO2. After 48 h, cells were fixed, washed, and stained for 30 min with 0.4% (wt/vol) with SRB dissolved in 1% acetic acid. Unbound dye was removed by four washes with 1% acetic acid, and attached stain was recovered with Tris-EDTA buffer. Color intensity was measured in an ELISA reader. […]

Data set [5] has as its system HOP-92. Nature of the data set: NCI primary anti-cancer assay (SRB), HOP-92. Conditions: Homo sapiens; 10^−5M; Non-Small Cell Lung Cancer HOP-92; read-out: Growth Inhibition %. The data set is classed as cell-based. The method, then: as §1
(§3) The cytotoxic activity was measured in vitro for the newly synthesized compounds using the SulfoRhodamine-B stain (SRB) assay using the method of Skehan. Cells were plated in 96-multiwell microtiter plate (10^4 cells/well) for 24 h before treatment with the compound(s) to allow attachment of cell to the wall of the plate. Tested compounds were dissolved in DMSO and diluted with saline to the appropriate volume. Triplicate wells were prepared for each individual dose. Monolayer cells were incubated with the compound(s) for 48 h at 37 °C and in atmosphere of 5% CO2. After 48 h, cells were fixed, washed, and stained for 30 min with 0.4% (wt/vol) with SRB dissolved in 1% acetic acid. Unbound dye was removed by four washes with 1% acetic acid, and attached stain was recovered with Tris-EDTA buffer. Color intensity was measured in an ELISA reader. The relation between surviving fraction and drug concentration is plotted to get the survival curve for tumor cell line after the specified time.

The test system of data set [6] is HS 578T. Kind of data set: NCI primary anti-cancer assay (SRB), HS 578T. It counts as cell-based. Conditions: Homo sapiens; 10^−5M; Breast Cancer HS 578T; read-out: Growth Inhibition %. The method, then:
as §1, §3

In data set [7] the test system is MCF7. Nature of the data set: NCI primary anti-cancer assay (SRB), MCF7. The data set is classed as cell-based. Conditions: Homo sapiens; 10^−5M; Breast Cancer MCF7; read-out: Growth Inhibition %. How it is done:
as §1, §2

Data set [8] has as its system MDA-MB-231/ATCC. Kind of data set: NCI primary anti-cancer assay (SRB), MDA-MB-231/ATCC. It counts as cell-based. Conditions: Homo sapiens; 10^−5M; Breast Cancer MDA-MB-231/ATCC; read-out: Growth Inhibition %. How it is done:
as §1, §3

Data set [9] relates to HL-60(TB). Nature of the data set: NCI primary anti-cancer assay (SRB), HL-60(TB). The data set is classed as cell-based. Conditions: Homo sapiens; 10^−5M; Leukemia HL-60(TB); read-out: Growth Inhibition %. How it is done:
as §1, §3

Data set [10] deals with K-562. Nature of the data set: NCI primary anti-cancer assay (SRB), K-562. The data set is classed as cell-based. Conditions: Homo sapiens, K562; 10^−5M; Leukemia K-562; read-out: Growth Inhibition %. How it is done: as §1, §3
Data set [11] concerns MOLT-4. Nature of the data set: NCI primary anti-cancer assay (SRB), MOLT-4. It counts as cell-based. Conditions: Homo sapiens; 10^−5M; Leukemia MOLT-4; read-out: Growth Inhibition %. The method, then: as §1, §3
In data set [12] the test system is RPMI-8226. Nature of the data set: NCI primary anti-cancer assay (SRB), RPMI-8226. It counts as cell-based. Conditions: Homo sapiens; 10^−5M; Leukemia RPMI-8226; read-out: Growth Inhibition %. How it is done: as §1, §3
The subject of data set [13] is SF-539. Kind of data set: NCI primary anti-cancer assay (SRB), SF-539. The data set is classed as cell-based. Conditions: Homo sapiens; 10^−5M; CNS Cancer SF-539; read-out: Growth Inhibition %. The method, then:
as §1, §3

Data set [14] relates to 60 human tumor cell lines. Kind of data set: NCI primary anti-cancer assay, summary over tumor cell lines. The data set is classed as cell-based. Conditions: 10^−5M, Non-small cell lung cancer, Ovarian cancer, Leukemia and Melanoma lines / different tumor cell lines, read-out: growth inhibitions (range over cell lines). How it is done: as §1, §3
Data set [15] concerns A549/ATCC. Kind of data set: NCI primary anti-cancer assay (SRB), A549/ATCC. The data set is classed as cell-based. Conditions: Homo sapiens; 10^−5M; Non-Small Cell Lung Cancer A549/ATCC; read-out: Growth Inhibition %. How it is done: as §1, §3
Data set [16] deals with IGROV1. Nature of the data set: NCI primary anti-cancer assay (SRB), IGROV1. The data set is classed as cell-based. Conditions: Homo sapiens, IGROV-1; 10^−5M; Ovarian Cancer IGROV1; read-out: Growth Inhibition %. The method, then: as §1, §3
Data set [17] concerns UO-31. Kind of data set: NCI primary anti-cancer assay (SRB), UO-31. The data set is classed as cell-based. Conditions: Homo sapiens; 10^−5M; Renal Cancer UO-31; read-out: Growth Inhibition %. The method, then:
as §1, §3

The subject of data set [18] is UACC-257. Nature of the data set: NCI primary anti-cancer assay (SRB), UACC-257. The data set is classed as cell-based. Conditions: Homo sapiens; 10^−5M; Melanoma UACC-257; read-out: Growth Inhibition %. How it is done: as §1, §3

Sequence of CDK4/CyclinD (P11802 whole entry, species assumed, the tested form may be a part): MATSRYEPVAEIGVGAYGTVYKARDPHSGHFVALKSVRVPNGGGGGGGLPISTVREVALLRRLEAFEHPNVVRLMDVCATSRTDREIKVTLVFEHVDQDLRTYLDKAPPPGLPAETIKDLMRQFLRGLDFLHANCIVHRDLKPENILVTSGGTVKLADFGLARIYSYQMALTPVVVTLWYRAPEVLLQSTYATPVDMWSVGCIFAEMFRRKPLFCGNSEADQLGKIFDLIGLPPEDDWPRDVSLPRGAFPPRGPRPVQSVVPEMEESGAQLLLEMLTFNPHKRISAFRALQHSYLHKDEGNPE
Sequence of CDK4/CyclinD (P24385 whole entry partner, species assumed, the tested form may be a part): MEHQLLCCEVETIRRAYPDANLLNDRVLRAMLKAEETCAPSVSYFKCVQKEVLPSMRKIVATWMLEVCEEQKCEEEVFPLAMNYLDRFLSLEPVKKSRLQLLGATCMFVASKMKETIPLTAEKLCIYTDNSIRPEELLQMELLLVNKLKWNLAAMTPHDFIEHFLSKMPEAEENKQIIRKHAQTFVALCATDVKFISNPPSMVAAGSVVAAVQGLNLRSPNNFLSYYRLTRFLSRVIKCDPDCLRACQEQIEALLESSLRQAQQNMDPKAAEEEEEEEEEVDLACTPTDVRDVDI
T2 sequence (P00533 712-979 limits assumed): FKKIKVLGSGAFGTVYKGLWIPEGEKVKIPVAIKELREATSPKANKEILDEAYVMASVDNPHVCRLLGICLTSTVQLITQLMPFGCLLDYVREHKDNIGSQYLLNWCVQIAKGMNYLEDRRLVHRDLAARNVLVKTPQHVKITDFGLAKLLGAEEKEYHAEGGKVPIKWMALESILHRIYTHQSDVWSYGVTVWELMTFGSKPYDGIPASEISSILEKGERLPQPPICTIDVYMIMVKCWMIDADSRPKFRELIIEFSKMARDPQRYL

For orientation: IC50 means the concentration at which inhibition is half-maximal. A low value points to greater potency in that assay. For orientation: melting point means the temperature of the solid-liquid transition. As to `Cc1nc(Nc2ccc(NC(=S)Nc3ccccc3)cc2)nc2nc(NCc3ccccc3)[nH]c(=O)c12` [Compound 7b, 1-(4-{[7-(Benzylamino)-4-methyl-5-oxo-5,6-dihydropyrimido[4,5-d]pyrimidin-2-yl]amino}-phenyl)-3-phenylthiourea], the melting point was more than 300 °C. For the same molecule, the 50% inhibitory concentration (IC50) in data set [1] turned out to be 0.86 µM. In [2], this molecule yielded a 50% inhibitory concentration (IC50) of 4.85 µM. This molecule also showed an IC50 in [3] of more than 10 µM. Moreover, the inhibition at 10 µM in [4] worked out at 28.5%. The inhibition at 10 µM in data set [5] was 20.8%. For the same molecule, the inhibition at 10 µM in data set [6] was 33.6%. For the same molecule, the inhibition at 10 µM in [7] is 43.5%. Also, the inhibition at 10 µM in data set [8] was 31.5%. Moreover, the inhibition at 10 µM in data set [9] is 24.5%. In addition, in [10], the inhibition at 10 µM was found to be 53.7%. The inhibition at 10 µM in data set [11] turned out to be 32.9%. For the same molecule, in data set [12], the inhibition at 10 µM was 50.2%. In addition, the inhibition at 10 µM in [13] worked out at 42%. Besides, the inhibition at 10 µM in data set [14] was in the range of 50 to 70%.

The molecule `O=c1[nH]c(NCc2ccccc2)nc2nc(Nc3ccc(NC(=S)Nc4ccccc4)cc3)nc(-c3ccc(O)cc3O)c12` [Compound 7a, 1-(4-{[7-(Benzylamino)-4-(2,4-dihydroxyphenyl)-5-oxo-5,6-dihydropyrimido[4,5-d]pyrimidin-2-yl]amino}phenyl)-3-phenylthiourea] returned a melting point of more than 300 °C. In addition, in data set [1], the IC50 is 0.31 µM. This molecule also displayed an IC50 in data set [2] of 3.33 µM. In addition, the IC50 in data set [3] is more than 10 µM. The inhibition at 10 µM in data set [15] is 58.4%. The inhibition at 10 µM in [4] worked out at 36.8%. For the same molecule, the inhibition at 10 µM in data set [16] came out at 29.7%. Also, the inhibition at 10 µM in data set [11] stood at 36.7%. Moreover, in [12], the inhibition at 10 µM came to 22.6%. Further, the inhibition at 10 µM in [17] worked out at 21.4%. Also, the inhibition at 10 µM in data set [18] stood at 60.3%. Also, in [14], the inhibition at 10 µM lay within 50 to 70%.
